Experimental data as given in PubChem BioAssay AID330 (DTP/NCI, 2004).
Values joined by “and” are separate entries in the source; they are usually repeats but may differ in a detail not shown here. Identical values can stand only once. Inconclusive results and toxic doses are left out.

Test system: P388 leukemia ip, CD2F1 mice, survival T/C
Experiment: NCI In Vivo Anticancer Drug Screen. Data for tumor model P388 Leukemia (intraperitoneal) in CD2F1 (CDF1) mice
Conditions: endpoint: median survival time, higher = longer survival
Outline: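 Mice carrying the transplanted tumor received test compound or vehicle. Survival was recorded in each group, and the value is the treated-group measurement divided by that of the vehicle-treated control group.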

[1] = dose: 25.0 mg/kg/injection, schedule: Q01DX005 (ip), vehicle: saline
[2] = dose: 50.0 mg/kg/injection, schedule: Q01DX005 (ip), vehicle: Klucel (hydroxypropylcellulose) (HPC)
[3] = dose: 50.0 mg/kg/injection, schedule: Q01DX009 (ip), vehicle: Klucel (hydroxypropylcellulose) (HPC)
[4] = dose: 100.0 mg/kg/injection, schedule: Q01DX009 (ip), vehicle: Klucel (hydroxypropylcellulose) (HPC)
[5] = dose: 200.0 mg/kg/injection, schedule: Q01DX009 (ip), vehicle: Klucel (hydroxypropylcellulose) (HPC)
[6] = dose: 100.0 mg/kg/injection, schedule: Q04DX002 (ip), vehicle: saline with Tween-80
[7] = dose: 100.0 mg/kg/injection, schedule: Q01DX005 (ip), vehicle: Klucel (hydroxypropylcellulose) (HPC)
[8] = dose: 12.5 mg/kg/injection, schedule: Q01DX009 (ip), vehicle: saline
[9] = dose: 50.0 mg/kg/injection, schedule: Q01DX009 (ip), vehicle: saline

`O=C1C(=C(Cl)Cl)C(=O)c2ccccc21` was tested, and the T/C (dose: 12.5 mg/kg/injection, schedule: Q01DX005 (ip), vehicle: saline) was 103 % of control, the T/C [1] was 100 % of control and the T/C [2] was 91 % of control. The T/C (dose: 50.0 mg/kg/injection, schedule: Q01DX005 (ip), vehicle: saline) was 95 % of control.

In the case of `CCCCCCCC(=O)NN`, the T/C (dose: 12.5 mg/kg/injection, schedule: Q01DX009 (ip), vehicle: suspension in saline) is reported as 96 % of control, the T/C (dose: 25.0 mg/kg/injection, schedule: Q01DX009 (ip), vehicle: suspension in saline) is reported as 96 % of control and the T/C (dose: 50.0 mg/kg/injection, schedule: Q01DX009 (ip), vehicle: suspension in saline) is reported as 97 % of control. The T/C (dose: 100.0 mg/kg/injection, schedule: Q01DX009 (ip), vehicle: suspension in saline) was 96 % of control.

`C[n+]1cc2ccccc2cc1CC(=S)[S-]` was tested, and the T/C (dose: 25.0 mg/kg/injection, schedule: Q01DX009 (ip), vehicle: Klucel (hydroxypropylcellulose) (HPC)) was 98 % of control, the T/C [3] was 98 % of control and the T/C [4] was 99 % of control. The T/C [5] was 91 % of control.

For `O=C(CS(=O)(=O)c1ccccc1)c1ccccc1`, the T/C [4] was 101 % of control, the T/C [5] was 101 % of control and the T/C (dose: 400.0 mg/kg/injection, schedule: Q01DX009 (ip), vehicle: Klucel (hydroxypropylcellulose) (HPC)) was 105 % of control.

`CCCCCCCCCCCCCCCCN(C)C(C)c1ccccc1` (stereo unspecified) was tested, and the T/C [6] was 103 % of control, the T/C (dose: 200.0 mg/kg/injection, schedule: Q04DX002 (ip), vehicle: saline with Tween-80) was 101 % of control and the T/C (dose: 400.0 mg/kg/injection, schedule: Q04DX002 (ip), vehicle: saline with Tween-80) was 104 % of control.

In the case of `N#CC(C(=O)CCC(=O)C(C#N)c1nc2ccccc2s1)c1nc2ccccc2s1` (stereo unspecified), the T/C (dose: 100.0 mg/kg/injection, schedule: Q01DX001 (ip), vehicle: saline with Tween-80) is reported as 89 % of control, the T/C (dose: 200.0 mg/kg/injection, schedule: Q01DX001 (ip), vehicle: saline with Tween-80) is reported as 88 % of control and the T/C (dose: 400.0 mg/kg/injection, schedule: Q01DX001 (ip), vehicle: saline with Tween-80) is reported as 91 % of control.

`Cc1c(N=Nc2cccc(Cl)c2Cl)c(-c2ccccc2)nn1C(=S)S` was tested, and the T/C (dose: 50.0 mg/kg/injection, schedule: Q01DX005 (ip), vehicle: saline with Tween-80) was 106 % of control, the T/C (dose: 100.0 mg/kg/injection, schedule: Q01DX005 (ip), vehicle: saline with Tween-80) was 94 % of control and the T/C (dose: 200.0 mg/kg/injection, schedule: Q01DX005 (ip), vehicle: saline with Tween-80) was 103 % of control.

In the case of `C[n+]1cc(Cl)cc(Br)c1`, the T/C [1] is reported as 117 % of control.

`CC(CC(=O)c1ccccc1)C(Sc1ccccc1)(Sc1ccccc1)Sc1ccccc1` (stereo unspecified) was tested, and the T/C [3] was 93 % of control, the T/C [4] was 90 % of control and the T/C [5] was 89 % of control.

`Cc1c(-c2nc(N)nc(C3CC3)c2C)nc(N)nc1C1CC1` was tested, and the T/C (dose: 60.0 mg/kg/injection, schedule: Q01DX005 (ip), vehicle: saline) was 102 % of control and the T/C (dose: 120.0 mg/kg/injection, schedule: Q01DX005 (ip), vehicle: saline) was 100 % of control.

`CN(C)C12CCCCCCC1S(=O)(=O)C2` (stereo unspecified) was tested, and the T/C (dose: 25.0 mg/kg/injection, schedule: Q04DX002 (ip), vehicle: saline with Tween-80) was 98 % of control, the T/C (dose: 50.0 mg/kg/injection, schedule: Q04DX002 (ip), vehicle: saline with Tween-80) was 98 % of control and the T/C [6] was 102 % of control and 96 % of control.

With `CCCCCCCCCCN(CCCCCCCCCC)CC(=O)c1ccc2cc(Br)c3ccccc3c2c1` the T/C (dose: 25.0 mg/kg/injection, schedule: Q01DX005 (ip), vehicle: Klucel (hydroxypropylcellulose) (HPC)) was 96 % of control, the T/C [2] was 89 % of control and the T/C [7] was 98 % of control.

For `S=c1nc[nH]c2c1ncn2C1CCCO1` (stereo unspecified), the T/C (dose: 100.0 mg/kg/injection, schedule: Q04DX003 (ip), vehicle: saline with Tween-80) was 100 % of control and the T/C (dose: 200.0 mg/kg/injection, schedule: Q04DX003 (ip), vehicle: saline with Tween-80) was 118 % of control.

For `COc1ccc2ccc3oc([N+](=O)[O-])cc3c2c1`, the T/C [2] was 108 % of control, the T/C [7] was 119 % of control and the T/C (dose: 400.0 mg/kg/injection, schedule: Q01DX005 (ip), vehicle: Klucel (hydroxypropylcellulose) (HPC)) was 92 % of control.

`O=C1C(O)=C(c2ccccc2)C(=O)C(O)=C1c1ccccc1` was tested, and the T/C [8] was 101 % of control and 124 % of control and the T/C [9] was 157 % of control and 164 % of control.

For `C(Oc1nc(OCC2CO2)nc(OCC2CO2)n1)C1CO1` (stereo unspecified), the T/C [8] was 108 % of control, the T/C (dose: 25.0 mg/kg/injection, schedule: Q01DX009 (ip), vehicle: saline) was 105 % of control and the T/C [9] was 101 % of control and 108 % of control.
